{
  "source": "ChEMBL document CHEMBL3616397",
  "about": "“Voltage-Gated Sodium Channels: Structure, Function, Pharmacology, and Clinical Indications” (J Med Chem, 2015)",
  "key": {"[1]": {"molecular_target": "Sodium channel protein type 5 subunit alpha (Homo sapiens, UniProt Q14524)", "sequence (Q14524 whole entry)": "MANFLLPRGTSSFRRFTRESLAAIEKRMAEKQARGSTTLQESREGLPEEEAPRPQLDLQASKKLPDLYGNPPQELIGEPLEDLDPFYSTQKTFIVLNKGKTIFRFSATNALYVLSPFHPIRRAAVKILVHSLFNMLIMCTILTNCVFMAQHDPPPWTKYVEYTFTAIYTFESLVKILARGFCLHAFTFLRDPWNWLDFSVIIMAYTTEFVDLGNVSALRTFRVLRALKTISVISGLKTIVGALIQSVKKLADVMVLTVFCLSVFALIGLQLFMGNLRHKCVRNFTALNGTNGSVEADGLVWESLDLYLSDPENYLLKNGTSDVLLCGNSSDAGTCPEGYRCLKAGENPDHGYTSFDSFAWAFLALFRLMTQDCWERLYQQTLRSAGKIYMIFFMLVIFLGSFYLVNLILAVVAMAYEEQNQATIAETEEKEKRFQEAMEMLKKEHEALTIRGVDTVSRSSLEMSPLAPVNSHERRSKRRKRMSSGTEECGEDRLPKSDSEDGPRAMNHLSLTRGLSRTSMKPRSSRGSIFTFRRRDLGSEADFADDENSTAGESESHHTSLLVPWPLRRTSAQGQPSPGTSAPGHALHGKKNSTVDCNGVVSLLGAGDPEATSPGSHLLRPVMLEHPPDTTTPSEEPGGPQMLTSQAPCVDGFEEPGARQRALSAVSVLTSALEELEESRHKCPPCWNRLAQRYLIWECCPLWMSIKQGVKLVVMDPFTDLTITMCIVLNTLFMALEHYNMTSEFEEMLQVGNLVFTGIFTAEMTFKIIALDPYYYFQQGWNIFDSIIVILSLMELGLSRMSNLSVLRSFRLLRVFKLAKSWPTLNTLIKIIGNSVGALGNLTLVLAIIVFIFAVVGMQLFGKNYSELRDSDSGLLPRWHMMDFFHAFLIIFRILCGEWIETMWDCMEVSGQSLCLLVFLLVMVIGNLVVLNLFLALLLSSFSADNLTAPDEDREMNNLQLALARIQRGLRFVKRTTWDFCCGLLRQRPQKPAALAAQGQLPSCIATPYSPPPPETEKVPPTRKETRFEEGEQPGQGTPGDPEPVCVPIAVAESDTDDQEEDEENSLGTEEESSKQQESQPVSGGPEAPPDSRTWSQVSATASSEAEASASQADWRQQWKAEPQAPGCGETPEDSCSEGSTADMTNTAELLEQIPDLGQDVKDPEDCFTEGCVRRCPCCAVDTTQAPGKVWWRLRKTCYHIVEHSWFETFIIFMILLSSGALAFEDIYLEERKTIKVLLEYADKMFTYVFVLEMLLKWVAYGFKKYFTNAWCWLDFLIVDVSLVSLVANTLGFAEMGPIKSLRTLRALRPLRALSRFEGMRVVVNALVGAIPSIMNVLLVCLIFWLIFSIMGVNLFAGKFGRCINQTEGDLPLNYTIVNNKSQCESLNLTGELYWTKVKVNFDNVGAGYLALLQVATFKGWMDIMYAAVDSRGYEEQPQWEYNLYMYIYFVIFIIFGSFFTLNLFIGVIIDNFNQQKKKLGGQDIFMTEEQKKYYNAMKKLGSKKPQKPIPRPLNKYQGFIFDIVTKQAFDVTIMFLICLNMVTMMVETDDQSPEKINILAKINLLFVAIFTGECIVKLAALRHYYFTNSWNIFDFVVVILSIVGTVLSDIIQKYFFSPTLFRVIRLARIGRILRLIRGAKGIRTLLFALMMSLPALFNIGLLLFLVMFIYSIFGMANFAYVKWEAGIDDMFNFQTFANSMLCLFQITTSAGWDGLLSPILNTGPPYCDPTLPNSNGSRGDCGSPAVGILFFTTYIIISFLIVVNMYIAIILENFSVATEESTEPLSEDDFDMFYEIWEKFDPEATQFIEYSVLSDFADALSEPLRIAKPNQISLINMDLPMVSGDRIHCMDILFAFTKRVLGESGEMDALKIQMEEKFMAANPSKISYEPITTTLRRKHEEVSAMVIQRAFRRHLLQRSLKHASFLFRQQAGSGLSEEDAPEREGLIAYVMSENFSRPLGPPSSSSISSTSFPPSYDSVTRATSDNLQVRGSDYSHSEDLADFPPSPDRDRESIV", "assay": "Inhibition of human NaV1.5 channel expressed in HEK293 cells by patch clamp electrophysiology assay", "assay_type": "cell-based"}, "Mus musculus": {"test_system": "Mus musculus", "assay": "Toxicity in mouse administered 15 to 20 mins", "assay_type": "organism-based", "conditions": "in vivo"}, "[2]": {"molecular_target": "T1, Sodium channel protein type 9 subunit alpha (Homo sapiens, UniProt Q15858)", "T1 sequence (Q15858 whole entry)": "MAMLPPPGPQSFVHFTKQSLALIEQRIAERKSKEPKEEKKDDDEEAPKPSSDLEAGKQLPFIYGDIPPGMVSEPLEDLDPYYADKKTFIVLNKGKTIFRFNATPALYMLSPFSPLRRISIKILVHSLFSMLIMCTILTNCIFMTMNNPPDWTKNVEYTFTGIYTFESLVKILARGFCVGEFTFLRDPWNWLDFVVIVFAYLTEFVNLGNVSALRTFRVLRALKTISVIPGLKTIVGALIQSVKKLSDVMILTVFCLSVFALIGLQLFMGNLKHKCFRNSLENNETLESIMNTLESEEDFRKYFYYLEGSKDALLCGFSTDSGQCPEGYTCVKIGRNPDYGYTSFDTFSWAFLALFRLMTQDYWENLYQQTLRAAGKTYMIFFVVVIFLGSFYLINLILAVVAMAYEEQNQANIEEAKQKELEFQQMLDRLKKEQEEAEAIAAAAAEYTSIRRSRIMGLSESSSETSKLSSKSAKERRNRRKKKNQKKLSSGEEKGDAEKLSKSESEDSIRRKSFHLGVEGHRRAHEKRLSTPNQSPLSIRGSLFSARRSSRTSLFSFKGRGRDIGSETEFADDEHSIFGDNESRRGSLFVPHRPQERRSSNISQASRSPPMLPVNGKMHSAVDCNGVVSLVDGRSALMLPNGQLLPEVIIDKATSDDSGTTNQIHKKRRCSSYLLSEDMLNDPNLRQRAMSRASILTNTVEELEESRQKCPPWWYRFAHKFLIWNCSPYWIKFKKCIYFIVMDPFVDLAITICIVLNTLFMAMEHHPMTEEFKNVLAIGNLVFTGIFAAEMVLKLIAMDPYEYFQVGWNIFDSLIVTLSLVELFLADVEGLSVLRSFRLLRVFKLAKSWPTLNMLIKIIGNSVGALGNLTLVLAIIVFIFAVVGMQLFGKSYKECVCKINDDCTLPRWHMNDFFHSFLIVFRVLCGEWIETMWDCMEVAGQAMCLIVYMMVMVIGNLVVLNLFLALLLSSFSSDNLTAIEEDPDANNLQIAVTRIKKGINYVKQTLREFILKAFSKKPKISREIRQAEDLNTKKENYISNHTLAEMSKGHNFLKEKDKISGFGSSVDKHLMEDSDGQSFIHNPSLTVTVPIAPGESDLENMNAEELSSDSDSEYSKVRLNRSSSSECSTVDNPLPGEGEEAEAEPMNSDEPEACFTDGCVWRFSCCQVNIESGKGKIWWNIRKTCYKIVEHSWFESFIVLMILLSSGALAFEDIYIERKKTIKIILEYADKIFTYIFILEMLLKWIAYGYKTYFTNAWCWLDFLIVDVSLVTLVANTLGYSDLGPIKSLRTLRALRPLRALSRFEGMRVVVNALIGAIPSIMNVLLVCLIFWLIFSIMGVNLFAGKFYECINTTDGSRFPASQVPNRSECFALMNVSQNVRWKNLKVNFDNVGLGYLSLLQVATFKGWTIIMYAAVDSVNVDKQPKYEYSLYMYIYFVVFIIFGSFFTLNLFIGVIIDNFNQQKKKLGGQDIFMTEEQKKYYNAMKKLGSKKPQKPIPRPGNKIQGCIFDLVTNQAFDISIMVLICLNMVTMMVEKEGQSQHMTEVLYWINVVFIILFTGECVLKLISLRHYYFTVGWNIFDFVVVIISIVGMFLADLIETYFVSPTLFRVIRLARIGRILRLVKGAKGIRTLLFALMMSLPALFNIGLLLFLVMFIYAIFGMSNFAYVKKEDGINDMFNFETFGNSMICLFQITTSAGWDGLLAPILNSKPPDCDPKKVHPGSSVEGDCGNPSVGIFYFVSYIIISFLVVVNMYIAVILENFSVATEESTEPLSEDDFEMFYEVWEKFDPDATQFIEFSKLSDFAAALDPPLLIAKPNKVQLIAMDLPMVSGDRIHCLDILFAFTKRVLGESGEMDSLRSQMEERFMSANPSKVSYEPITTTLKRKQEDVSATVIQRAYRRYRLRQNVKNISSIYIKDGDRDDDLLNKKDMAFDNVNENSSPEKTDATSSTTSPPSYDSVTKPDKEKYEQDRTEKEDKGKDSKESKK", "assay": "Inhibition of human NaV1.7 channel expressed in HEK293 cells treated for 120 secs by QPatch assay", "assay_type": "cell-based"}, "[3]": {"molecular_target": "Sodium channel protein type 8 subunit alpha (Mus musculus, UniProt Q9WTU3)", "assay": "Inhibition of mouse NaV1.6 channel by two-electrode voltage-clamp method"}, "[4]": {"assay": "Inhibition of mouse NaV1.2 channel by two-electrode voltage-clamp method"}, "[5]": {"molecular_target": "Sodium channel protein type 1 subunit alpha (Mus musculus, UniProt A2APX8)", "assay": "Inhibition of mouse NaV1.1 channel by two-electrode voltage-clamp method"}, "[6]": {"molecular_target": "Sodium channel protein type 4 subunit alpha (Mus musculus, UniProt Q9ER60)", "assay": "Inhibition of mouse NaV1.4 channel by two-electrode voltage-clamp method"}, "[7]": {"molecular_target": "Sodium channel protein type 9 subunit alpha (Rattus norvegicus, UniProt O08562)", "assay": "Inhibition of rat NaV1.7 channel by two-electrode voltage-clamp method"}, "[8]": {"molecular_target": "T1, Sodium channel protein type 9 subunit alpha", "assay": "Inhibition of human NaV1.7 channel expressed in HEK cells by patch clamp electrophysiology assay", "assay_type": "cell-based, HEK293"}, "[9]": {"assay": "Selectivity ratio of IC50 for rat NaV1.2 channel expressed in Xenopus laevis oocytes to IC50 for mouse NaV1.6 channel expressed in Xenopus laevis oocytes", "assay_type": "cell-based"}, "[10]": {"assay": "Selectivity ratio of IC50 for rat NaV1.3 channel expressed in Xenopus laevis oocytes to IC50 for mouse NaV1.6 channel expressed in Xenopus laevis oocytes", "assay_type": "cell-based"}, "[11]": {"assay": "Selectivity ratio of IC50 for rat NaV1.4 channel expressed in Xenopus laevis oocytes to IC50 for mouse NaV1.6 channel expressed in Xenopus laevis oocytes", "assay_type": "cell-based"}, "[12]": {"assay": "Selectivity ratio of IC50 for human NaV1.7 channel expressed in Xenopus laevis oocytes to IC50 for mouse NaV1.6 channel expressed in Xenopus laevis oocytes", "assay_type": "cell-based"}, "[13]": {"molecular_target": "Sodium channel protein type 2 subunit alpha (Rattus norvegicus, UniProt P04775)", "assay": "Inhibition of rat NaV1.2 channel"}, "[14]": {"molecular_target": "Sodium channel protein type 3 subunit alpha (Rattus norvegicus, UniProt P08104)", "assay": "Inhibition of rat NaV1.3 channel"}, "[15]": {"molecular_target": "T1, Sodium channel protein type 9 subunit alpha", "assay": "Inhibition of human NaV1.7 channel by patch clamp electrophysiology assay"}, "[16]": {"molecular_target": "Sodium channel protein type 4 subunit alpha (Rattus norvegicus) (UniProt P15390)", "assay": "Inhibition of rat NaV1.4 channel at 1 uM relative to control"}, "[17]": {"molecular_target": "NaV1.5 (sodium channel protein type 5 subunit alpha) (Rattus norvegicus, UniProt P15389)", "assay": "Inhibition of rat NaV1.5 channel at 1 uM relative to control"}, "[18]": {"molecular_target": "T1, Sodium channel protein type 9 subunit alpha", "assay": "Inhibition of human NaV1.7 channel expressed in HEK293 cells by patch clamp electrophysiology assay", "assay_type": "cell-based"}, "[19]": {"molecular_target": "Sodium channel protein type 1 subunit alpha (Homo sapiens, UniProt P35498)", "assay": "Inhibition of human NaV1.1 channel by patch clamp electrophysiology assay"}, "[20]": {"molecular_target": "Sodium channel protein type 4 subunit alpha (Homo sapiens, UniProt P35499)", "assay": "Inhibition of human NaV1.4 channel by patch clamp electrophysiology assay"}, "[21]": {"molecular_target": "Sodium channel protein type 8 subunit alpha (Homo sapiens, UniProt Q9UQD0)", "assay": "Inhibition of human NaV1.6 channel by patch clamp electrophysiology assay"}, "[22]": {"molecular_target": "Sodium channel protein type 10 subunit alpha (Homo sapiens, UniProt Q9Y5Y9)", "assay": "Inhibition of human NaV1.8 channel by patch clamp electrophysiology assay"}, "[23]": {"molecular_target": "Sodium channel protein type 2 subunit alpha (Homo sapiens, UniProt Q99250)", "assay": "Inhibition of human NaV1.2 channel by patch clamp electrophysiology assay"}, "[24]": {"molecular_target": "Sodium channel protein type 3 subunit alpha (Homo sapiens, UniProt Q9NY46)", "assay": "Inhibition of human TTX-sensitive NaV1.3 channel expressed in HEK293 cells by patch clamp electrophysiology assay", "assay_type": "cell-based"}, "[25]": {"assay": "Toxicity in mouse", "assay_type": "organism-based", "conditions": "in vivo"}},
  "note": "pIC50, pKd: −log10 of the molar value.",
  "data": [
    {"smiles": "O=S(=O)(Nc1ncns1)c1cc(F)c(OC[C@@H]2CNCC[C@H]2c2ccc(Cl)c(F)c2)cc1F", "values": [
      {"measurement": "pIC50", "setting": "[1]", "value": "< 5.00"}
    ]},
    {"smiles": "CC1=CN=C(C)C1C(=O)O[C@@H](C)C1=CC[C@@]23OCCN(C)C[C@@]12C[C@@H](O)[C@]12O[C@@]4(O)CC[C@@]1(C)[C@H](CC=C32)C4", "note": "(stereo partly specified)", "values": [
      {"measurement": "LD50", "setting": "Mus musculus", "value": 0.002, "unit": "mg/kg"}
    ]},
    {"smiles": "CN1CC[C@]2(CC[C@@H](c3cc(-c4cccc(OC(F)(F)F)c4)ccn3)N2)C1=O", "values": [
      {"measurement": "pIC50", "setting": "[2]", "value": 6.60}
    ]},
    {"smiles": "N=C(N)NCCC[C@@H]1NC(=O)[C@H](CO)NC(=O)[C@H](Cc2cnc[nH]2)NC(=O)[C@H](CC(=O)O)NC(=O)[C@H](CCCNC(=N)N)NC(=O)[C@@H]2CSSC[C@H](N)C(=O)N[C@H]3CSSC[C@H](NC1=O)C(=O)N[C@H](C(=O)O)CSSC[C@H](NC(=O)[C@H](CC(N)=O)NC3=O)C(=O)N[C@@H](CO)C(=O)N[C@@H](CO)C(=O)N[C@@H](CCCCN)C(=O)N[C@@H](Cc1c[nH]c3ccccc13)C(=O)N2", "values": [
      {"measurement": "pIC50", "setting": "[3]", "value": 6.62},
      {"measurement": "pKd", "setting": "[4]", "value": 8.30},
      {"measurement": "pKd", "setting": "[5]", "value": 6.54},
      {"measurement": "pIC50", "setting": "[6]", "value": 7.05},
      {"measurement": "pKd", "setting": "[7]", "value": 6.54}
    ]},
    {"smiles": "CCCOc1ncccc1-c1cc(C(=O)NS(C)(=O)=O)ccc1Oc1ccc(Cl)cc1", "values": [
      {"measurement": "pIC50", "setting": "[8]", "value": 7.85}
    ]},
    {"smiles": "Cc1ccc(OCC(C)C)c(-c2cccc([C@@H]3CC[C@]4(CCN(C)C4=O)N3)c2F)c1", "values": [
      {"measurement": "pIC50", "setting": "[2]", "value": 6.60}
    ]},
    {"smiles": "N=C1N[C@H]2OC3C4(N1)C2[C@H]1O[C@]3(O)OC([C@H]4O)[C@]1(O)CO", "values": [
      {"measurement": "Ratio IC50", "setting": "[9]", "value": 161},
      {"measurement": "Ratio IC50", "setting": "[10]", "value": 44},
      {"measurement": "Ratio IC50", "setting": "[11]", "value": 127},
      {"measurement": "Ratio IC50", "setting": "[12]", "value": 163}
    ]},
    {"smiles": "CC[C@H](C)[C@H](NC(=O)[C@H](CCC(=O)O)NC(=O)[C@H](Cc1ccc(O)cc1)NC(=O)[C@H](CCCCN)NC(=O)[C@H](CS)NC(=O)[C@H](Cc1c[nH]c2ccccc12)NC(=O)[C@H](CCCNC(=N)N)NC(=O)[C@H](Cc1cnc[nH]1)NC(=O)[C@H](CCCCN)NC(=O)[C@H](CCCNC(=N)N)NC(=O)[C@H](CO)NC(=O)[C@H](CS)NC(=O)[C@@H](NC(=O)[C@H](CC(C)C)NC(=O)[C@H](CC(N)=O)NC(=O)[C@H](CO)NC(=O)[C@H](CO)NC(=O)[C@H](CCCCN)NC(=O)[C@H](CS)NC(=O)[C@H](CS)NC(=O)[C@H](CCC(N)=O)NC(=O)[C@H](CC(=O)O)NC(=O)[C@H](CC(N)=O)NC(=O)[C@H](CO)NC(=O)[C@@H]1CCCN1C(=O)[C@H](CC(N)=O)NC(=O)[C@H](CS)NC(=O)CNC(=O)[C@H](CCCCN)NC(=O)CNC(=O)[C@H](Cc1ccccc1)NC(=O)CNC(=O)[C@H](CC(C)C)NC(=O)[C@H](CS)NC(=O)[C@@H](N)CCC(=O)O)C(C)C)C(N)=O", "values": [
      {"measurement": "pIC50", "setting": "[13]", "value": 7.44},
      {"measurement": "pIC50", "setting": "[14]", "value": 6.43},
      {"measurement": "pIC50", "setting": "[15]", "value": 7.68},
      {"measurement": "inhibition", "setting": "[16]", "value": 7.3, "unit": "%"},
      {"measurement": "inhibition at 1 µM", "setting": "[17]", "value": 0, "unit": "%"}
    ]},
    {"smiles": "Nc1nc2cc(-c3cc(Cl)ccc3Oc3cc(F)c(S(=O)(=O)Nc4ncns4)cc3F)ccc2[nH]1", "values": [
      {"measurement": "pIC50", "setting": "[18]", "value": 7.52},
      {"measurement": "pIC50", "setting": "[1]", "value": "< 5.00"}
    ]},
    {"smiles": "Cc1cc(-c2ccc(C(F)(F)F)cc2)nc([C@@H]2CC[C@]3(CCN(C)C3=O)N2)n1", "values": [
      {"measurement": "pIC50", "setting": "[2]", "value": 5.70}
    ]},
    {"smiles": "O=C(Nc1ccc(S(=O)(=O)Nc2nccs2)cc1)C(c1ccccc1)c1ccccc1", "values": [
      {"measurement": "pIC50", "setting": "[19]", "value": "> 7.70"},
      {"measurement": "pIC50", "setting": "[18]", "value": "< 5.00"},
      {"measurement": "pIC50", "setting": "[20]", "value": "< 5.00"},
      {"measurement": "pIC50", "setting": "[1]", "value": "< 5.00"},
      {"measurement": "pIC50", "setting": "[21]", "value": "< 5.00"},
      {"measurement": "pIC50", "setting": "[22]", "value": "< 5.00"},
      {"measurement": "pIC50", "setting": "[23]", "value": 6.62},
      {"measurement": "pIC50", "setting": "[24]", "value": "> 7.70"}
    ]},
    {"smiles": "COc1ccc(C(=O)O[C@H]2CC[C@@]3(C)[C@@H]4CC[C@H]5[C@]6(O)C[C@H](O)[C@@]7(O)[C@@H](CN8C[C@@H](C)CC[C@H]8[C@@]7(C)O)[C@]6(O)C[C@@]53O[C@]24O)cc1OC", "note": "[VERATRIDINE]", "values": [
      {"measurement": "LD50", "setting": "[25]", "value": 9, "unit": "mg/kg"}
    ]}
  ]
}
